How the values were obtained:
giant foxtail = assay: Test E preemergence; format: in vivo, Setaria faberii; details: for Foxtail, Giant plant response rating: scale 0 to 100 (0 no effect, 100 complete control)
Summary of the method: (§1)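 Test chemicals formulated in a non-phytotoxic solvent mixture containing a surfactant were applied preemergence to seeds in silt loam soil or postemergence to plants at the 1- to 4-leaf stage in potting mix. After 14 to 21 days in a greenhouse, injury was visually rated against controls on a 0-100 scale (0 = no effect, 100 = complete control).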

surinam grass = assay: Test E preemergence; format: in vivo, Brachiaria decumbens; details: for Surinam Grass plant response rating: scale 0 to 100 (0 no effect, 100 complete control)
Summary of the method: as §1

soybean = assay: Test E preemergence; format: in vivo, Glycine max; details: for Soybean plant response rating: scale 0 to 100 (0 no effect, 100 complete control)
Summary of the method: as §1

kochia [1] = assay: Test A postemergence; format: in vivo, Kochia scoparia; details: 0 to 100 scale where 0 is no effect and 100 is complete control
Summary of the method: (§2)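 Greenhouse pot test, loam/sand soil. Formulation: non-phytotoxic solvent mix plus surfactant. Pre: directed spray onto soil after sowing. Post: plants at 1–2 leaf, 2–10 cm. Rated visually vs untreated controls at ~10 d, 0 (no effect) to 100 (complete control).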

hairy beggarticks = assay: Test E preemergence; format: in vivo, Bidens pilosa; details: for Beggarticks plant response rating: scale 0 to 100 (0 no effect, 100 complete control); for Plant response rating, Beggarticks: scale 0 to 100, 0 no effect, 100 complete control
Summary of the method: as §1

morningglory = assay: Test E preemergence; format: in vivo, Ipomoea coccinea; details: for Morningglory plant response rating: scale 0 to 100 (0 no effect, 100 complete control)
Summary of the method: as §1

sandbur = assay: Test E preemergence; format: in vivo, Cenchrus echinatus; details: for Sandbur plant response rating: scale 0 to 100 (0 no effect, 100 complete control)
Summary of the method: as §1

ragweed [2] = assay: Test E preemergence; format: in vivo, Ambrosia elatior; details: for Ragweed plant response rating: scale 0 to 100 (0 no effect, 100 complete control)
Summary of the method: as §1

nightshade = assay: Test E preemergence; format: in vivo, Solanum ptycanthum; details: for Nightshade plant response rating: scale 0 to 100 (0 no effect, 100 complete control)
Summary of the method: as §1

ragweed [3] = assay: Test A postemergence; format: in vivo, Ambrosia elatior; details: 0 to 100 scale where 0 is no effect and 100 is complete control
Summary of the method: as §2

barnyardgrass = assay: Test E preemergence; format: in vivo, Echinochloa crus-galli; details: for Barnyardgrass plant response rating: scale 0 to 100 (0 no effect, 100 complete control); for Plant response rating, Barnyardgrass: scale 0 to 100, 0 no effect, 100 complete control
Summary of the method: as §1

Italian ryegrass = assay: Test E preemergence; format: in vivo, Lolium multiflorum; details: for Ryegrass, Italian plant response rating: scale 0 to 100 (0 no effect, 100 complete control)
Summary of the method: as §1

kochia [4] = assay: Test E preemergence; format: in vivo, Kochia scoparia; details: for Kochia plant response rating: scale 0 to 100 (0 no effect, 100 complete control)
Summary of the method: as §1

fall panicum = assay: Test E preemergence; format: in vivo, Panicum dichotomiflorum; details: for Panicum, Fall plant response rating: scale 0 to 100 (0 no effect, 100 complete control)
Summary of the method: as §1

large (Lg) crabgrass = assay: Test E preemergence; format: in vivo, Digitaria sanguinalis; details: for Crabgrass, Large plant response rating: scale 0 to 100 (0 no effect, 100 complete control)
Summary of the method: as §1

goosegrass = assay: Test E preemergence; format: in vivo, Eleusine indica; details: for Goosegrass plant response rating: scale 0 to 100 (0 no effect, 100 complete control)
Summary of the method: as §1

[5] = 125 g ai/ha, scale 0 to 100, 0 no effect, 100 complete control

N#Cc1cccc(Oc2ncc(Br)cn2)c1-n1cc(I)cn1 [Compound 88]
Foxtail, Giant plant response rating (giant foxtail; 16 g ai/ha): 0
Foxtail, Giant plant response rating (giant foxtail; 31 g ai/ha): 0
Foxtail, Giant plant response rating (giant foxtail; 62 g ai/ha): 0
Plant response rating, Foxtail, Giant (giant foxtail; [5]): 25
Surinam Grass plant response rating (surinam grass; 16 g ai/ha): 0
Surinam Grass plant response rating (surinam grass; 31 g ai/ha): 0
Surinam Grass plant response rating (surinam grass; 62 g ai/ha): 0
Plant response rating, Surinam Grass (surinam grass; [5]): 10
Soybean plant response rating (soybean; 16 g ai/ha): 35
Soybean plant response rating (soybean; 31 g ai/ha): 0
Soybean plant response rating (soybean; 62 g ai/ha): 20
Plant response rating, Soybean (soybean; [5]): 20
Plant response rating, Kochia (kochia [1]; 125 g ai/ha): 80
Plant response rating, Kochia (kochia [1]; 500 g ai/ha): 100
Beggarticks plant response rating (hairy beggarticks; 16 g ai/ha, preemergence): 0
Beggarticks plant response rating (hairy beggarticks; 31 g ai/ha, preemergence): 0
Plant response rating, Beggarticks (hairy beggarticks; Preemergence, 62 g ai/ha): 0
Plant response rating, Beggarticks (hairy beggarticks; preemergence, 125 g ai/ha): 0
Morningglory plant response rating (morningglory; 16 g ai/ha): 0
Morningglory plant response rating (morningglory; 31 g ai/ha): 0
Morningglory plant response rating (morningglory; 62 g ai/ha): 10
Plant response rating, Morningglory (morningglory; [5]): 15
Sandbur plant response rating (sandbur; 16 g ai/ha): 0
Sandbur plant response rating (sandbur; 31 g ai/ha): 0
Sandbur plant response rating (sandbur; 62 g ai/ha): 0
Plant response rating, Sandbur (sandbur; [5]): 10
Ragweed plant response rating (ragweed [2]; 16 g ai/ha): 0
Ragweed plant response rating (ragweed [2]; 31 g ai/ha): 0
Ragweed plant response rating (ragweed [2]; 62 g ai/ha): 0
Plant response rating, Ragweed (ragweed [2]; [5]): 65
Nightshade plant response rating (nightshade; 31 g ai/ha): 0
Plant response rating, Nightshade (nightshade; [5]): 0
Plant response rating, Ragweed (ragweed [3]; 125 g ai/ha): 10
Plant response rating, Ragweed (ragweed [3]; 500 g ai/ha): 30
Barnyardgrass plant response rating (barnyardgrass; 16 g ai/ha, preemergence): 0
Barnyardgrass plant response rating (barnyardgrass; 31 g ai/ha, preemergence): 0
Plant response rating, Barnyardgrass (barnyardgrass; Preemergence, 62 g ai/ha): 0
Plant response rating, Barnyardgrass (barnyardgrass; preemergence, 125 g ai/ha): 0
Ryegrass, Italian plant response rating (Italian ryegrass; 16 g ai/ha): 0
Ryegrass, Italian plant response rating (Italian ryegrass; 31 g ai/ha): 0
Ryegrass, Italian plant response rating (Italian ryegrass; 62 g ai/ha): 0
Plant response rating, Ryegrass, Italian (Italian ryegrass; [5]): 0
Kochia plant response rating (kochia [4]; 16 g ai/ha): 0
Kochia plant response rating (kochia [4]; 31 g ai/ha): 0
Kochia plant response rating (kochia [4]; 62 g ai/ha): 35
Plant response rating, Kochia (kochia [4]; [5]): 50
Panicum, Fall plant response rating (fall panicum; 16 g ai/ha): 0
Panicum, Fall plant response rating (fall panicum; 31 g ai/ha): 0
Panicum, Fall plant response rating (fall panicum; 62 g ai/ha): 0
Plant response rating, Panicum, Fall (fall panicum; [5]): 10
Crabgrass, Large plant response rating (large (Lg) crabgrass; 16 g ai/ha): 0
Crabgrass, Large plant response rating (large (Lg) crabgrass; 31 g ai/ha): 35
Crabgrass, Large plant response rating (large (Lg) crabgrass; 62 g ai/ha): 65
Plant response rating, Crabgrass, Large (large (Lg) crabgrass; [5]): 95
Goosegrass plant response rating (goosegrass; 16 g ai/ha): 0
Goosegrass plant response rating (goosegrass; 31 g ai/ha): 0
Goosegrass plant response rating (goosegrass; 62 g ai/ha): 5
Plant response rating, Goosegrass (goosegrass; [5]): 5

FC(F)c1cccc(Oc2ncc(Cl)cn2)c1-n1cc(Br)cn1 [Compound 194, 2-[2-(4-bromo-1H-pyrazol-1-yl)-3-(difluoromethyl)phenoxy]-5-chloropyrimidine]
Foxtail, Giant plant response rating (giant foxtail; 31 g ai/ha): 25
Foxtail, Giant plant response rating (giant foxtail; 62 g ai/ha): 75
Surinam Grass plant response rating (surinam grass; 31 g ai/ha): 0
Surinam Grass plant response rating (surinam grass; 62 g ai/ha): 0
Soybean plant response rating (soybean; 31 g ai/ha): 0
Soybean plant response rating (soybean; 62 g ai/ha): 20
Beggarticks plant response rating (hairy beggarticks; 31 g ai/ha, preemergence): 0
Beggarticks plant response rating (hairy beggarticks; 62 g ai/ha, preemergence): 0
Morningglory plant response rating (morningglory; 31 g ai/ha): 0
Morningglory plant response rating (morningglory; 62 g ai/ha): 0
Sandbur plant response rating (sandbur; 31 g ai/ha): 20
Sandbur plant response rating (sandbur; 62 g ai/ha): 20
Ragweed plant response rating (ragweed [2]; 31 g ai/ha): 0
Ragweed plant response rating (ragweed [2]; 62 g ai/ha): 20
Nightshade plant response rating (nightshade; 31 g ai/ha): 95
Nightshade plant response rating (nightshade; 62 g ai/ha): 95
Barnyardgrass plant response rating (barnyardgrass; 31 g ai/ha, preemergence): 0
Barnyardgrass plant response rating (barnyardgrass; 62 g ai/ha, preemergence): 0
Ryegrass, Italian plant response rating (Italian ryegrass; 31 g ai/ha): 0
Ryegrass, Italian plant response rating (Italian ryegrass; 62 g ai/ha): 0
Kochia plant response rating (kochia [4]; 31 g ai/ha): 5
Kochia plant response rating (kochia [4]; 62 g ai/ha): 35
Panicum, Fall plant response rating (fall panicum; 31 g ai/ha): 80
Panicum, Fall plant response rating (fall panicum; 62 g ai/ha): 100
Crabgrass, Large plant response rating (large (Lg) crabgrass; 31 g ai/ha): 85
Crabgrass, Large plant response rating (large (Lg) crabgrass; 62 g ai/ha): 95
Goosegrass plant response rating (goosegrass; 31 g ai/ha): 40
Goosegrass plant response rating (goosegrass; 62 g ai/ha): 75
